# Results reported in ChEMBL document CHEMBL1275374, “Ligand-based virtual screening and ADME-tox guided approach to identify triazolo-quinoxalines as folate cycle inhibitors” (Bioorg Med Chem, 2010).
# pIC50, pKi: −log10 of the molar value. Active and inactive are the calls of the source. No cut-off for these calls is given here.
# What was measured:
# Thymidylate synthase [1] = target: T1, Thymidylate synthase (Homo sapiens, UniProt P04818); test: Inhibition of human thymidylate synthase expressed in Escherichia coli BL21 at 50 uM
# Target sequence in this assay (P04818 2-313 limits assumed): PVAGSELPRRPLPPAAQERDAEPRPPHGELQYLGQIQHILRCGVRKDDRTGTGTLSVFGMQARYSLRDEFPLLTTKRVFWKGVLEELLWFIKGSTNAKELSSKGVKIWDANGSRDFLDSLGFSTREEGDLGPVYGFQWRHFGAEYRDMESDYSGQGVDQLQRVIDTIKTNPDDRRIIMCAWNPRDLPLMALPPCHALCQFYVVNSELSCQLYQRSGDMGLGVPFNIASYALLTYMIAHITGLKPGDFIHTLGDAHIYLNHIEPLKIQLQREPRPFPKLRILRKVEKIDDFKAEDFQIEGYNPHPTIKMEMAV
# [2] = Solubility of the compound in dimethyl sulfoxide; format: physicochemical
# Vero = test: Cytotoxicity against african green monkey Vero cells after 72 hrs using crystal violet staining by spectrophotometric analysis; format: cell-based; details: Chlorocebus sabaeus
# [3] = Cytotoxicity against human cDDP-resistant C13 cells after 72 hrs using crystal violet staining by spectrophotometric analysis; format: cell-based; details: C13, 72 h
# 2008 [4] = test: Cytotoxicity against human cDDP-sensitive 2008 cells after 72 hrs using crystal violet staining by spectrophotometric analysis; format: cell-based; details: Homo sapiens, 2008, 72 h
# [5] = target: T2, Dihydrofolate reductase (Homo sapiens) (UniProt P00374); test: Inhibition of human DHFR expressed in Escherichia coli BL21 at 100 uM
# T2 sequence (whole entry): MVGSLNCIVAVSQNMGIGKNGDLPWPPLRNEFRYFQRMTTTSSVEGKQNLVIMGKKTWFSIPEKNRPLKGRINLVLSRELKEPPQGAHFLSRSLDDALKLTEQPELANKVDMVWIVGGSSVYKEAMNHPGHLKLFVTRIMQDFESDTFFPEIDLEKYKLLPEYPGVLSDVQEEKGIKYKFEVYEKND
# Thymidylate synthase [6] = target: T1, Thymidylate synthase; test: Inhibition of human thymidylate synthase expressed in Escherichia coli BL21 at 25 uM
# Target sequence in this assay (P04818 2-313 limits assumed): as the sequence (P04818 2-313 limits assumed) above
# Thymidylate synthase [7] = target: T1, Thymidylate synthase; test: Inhibition of human thymidylate synthase expressed in Escherichia coli BL21 at 100 uM
# Target sequence in this assay (P04818 2-313 limits assumed): as the sequence (P04818 2-313 limits assumed) above
# A2780 [8] = test: Cytotoxicity against human cDDP-sensitive A2780 cells after 72 hrs using crystal violet staining by spectrophotometric analysis; format: cell-based; details: A2780, 72 h
# A2780 [9] = test: Cytotoxicity against human cDDP-resistant A2780 cells after 72 hrs using crystal violet staining by spectrophotometric analysis; format: cell-based; details: A2780, 72 h
# [10] = Cytotoxicity against human Fibroblast at up to 100 uM after 72 hrs using crystal violet staining by spectrophotometric analysis; format: cell-based
# Thymidylate synthase [11] = target: T1, Thymidylate synthase; test: Inhibition of human thymidylate synthase expressed in Escherichia coli BL21
# Target sequence in this assay (P04818 whole entry): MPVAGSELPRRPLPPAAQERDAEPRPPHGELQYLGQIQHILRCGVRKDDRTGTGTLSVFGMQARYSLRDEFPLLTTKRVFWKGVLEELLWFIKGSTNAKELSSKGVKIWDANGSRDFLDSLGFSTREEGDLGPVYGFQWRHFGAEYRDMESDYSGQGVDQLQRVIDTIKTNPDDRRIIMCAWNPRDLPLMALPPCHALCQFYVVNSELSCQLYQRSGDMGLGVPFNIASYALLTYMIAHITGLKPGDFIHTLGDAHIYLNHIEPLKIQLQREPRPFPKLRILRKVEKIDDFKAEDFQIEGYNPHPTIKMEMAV
# 2008 [12] = test: Inhibition of DHFR protein expression in human cDDP-sensitive 2008 cells after 72 hrs by Western blotting; format: functional, cell-based
# 2008 [13] = test: Induction of ROS accumulation in human cDDP-sensitive 2008 cells at IC50 concentration after 72 hrs […]; format: cell-based; details: human, 2008, 72 h
# [14] = Inhibition of thymidylate synthase protein expression in human cDDP-resistant C13 cells after 72 hrs by Western blotting; format: functional, cell-based
# C13 = test: Inhibition of DHFR protein expression in human cDDP-resistant C13 cells after 72 hrs by Western blotting; format: functional, cell-based
# Thymidylate synthase [15] = target: T1, Thymidylate synthase; test: Inhibition of thymidylate synthase catalytic activity in human cDDP-sensitive 2008 cells after 72 hrs by Western blotting (reference value: 38.8 +/- 3.9%); format: cell-based; details: concentration not given here
# Target sequence in this assay (P04818 2-313 limits assumed): as the sequence (P04818 2-313 limits assumed) above
# Thymidylate synthase [16] = target: T1, Thymidylate synthase; test: Inhibition of thymidylate synthase catalytic activity in human cDDP-resistant C13 cells after 72 hrs by Western blotting (reference value: 12.9 +/- 0.6%); format: cell-based; details: concentration not given here
# Target sequence in this assay (P04818 2-313 limits assumed): as above
# 2008 [17] = test: Inhibition of thymidylate synthase protein expression in human cDDP-sensitive 2008 cells after 72 hrs by Western blotting; format: functional, cell-based
# [18] = Induction of ROS accumulation in human cDDP-resistant C13 cells at IC50 concentration after 72 hrs […]; format: cell-based; details: c13, 72 h
inhibition (Thymidylate synthase [1]) [%],SMILES,pIC50 (Vero),pIC50 [3],pIC50 2008 [4],pIC50 (A2780 [8]),pIC50 (A2780 [9]),further results
< 5,C=CCn1cnc2c(c1=O)c1nc3ccccc3nc1n2CCCC,–,–,–,–,–,solubility [2]: Insoluble
< 5,O=C(CSc1nc2ccccc2nc1-c1ccccc1)N1CCCCCC1,–,–,–,–,–,–
< 5,Cc1ccc(-c2nc3ccccc3n3cc4c(=O)n(C)c(=O)n(C)c4c23)cc1,4.00,4.25,4.28,–,–,solubility [2]: Insoluble
< 5,Cc1cc(Nc2nc3ccccc3n3cnnc23)ccc1Br,4.70,4.72,4.77,–,–,–
70,Cc1ccc(S(=O)(=O)N(C)c2nc3ccccc3n3c(-c4ccccc4)nnc23)cc1,–,–,–,–,–,inhibition [5]: inactive
–,Clc1ccc(Oc2nc3ccccc3n3c(-c4ccc(Cl)cc4)nnc23)cc1,–,–,–,–,–,inhibition [5]: inactive; inhibition (Thymidylate synthase [6]): 53%
< 5,COc1ccc(-c2nc3ccccc3n3cc4c(=O)n(C)c(=O)n(C)c4c23)cc1,–,–,–,–,–,solubility [2]: Insoluble
< 5,Cc1cccc(-c2c3c(=O)n(C)c(=O)n(C)c3c3c(C(F)(F)F)nc4ccccc4n23)c1,4.00,4.26,4.31,–,–,–
< 5,O=C(Nc1cc(C(F)(F)F)ccc1Cl)c1ccc2nccnc2c1,–,4.30,4.30,–,–,–
–,CN1CCN(c2nc3ccccc3n3c(-c4ccccc4)nnc23)CC1,4.66,< 4.30,4.32,4.74,4.42,inhibition [5]: 40%; inhibition (Thymidylate synthase [7]): < 10%
–,FC(F)(F)c1ccc(-c2nnc3c(C(F)(F)F)nc4ccccc4n23)cc1,–,–,–,–,–,inhibition [5]: 10%; inhibition (Thymidylate synthase [7]): 22%
< 5,Cc1ccc(S(=O)(=O)N2CN(c3ccccc3)c3nc4ccccc4nc32)cc1,–,4.30,4.30,–,–,–
28,Clc1nc2ccccc2n2c(-c3ccccc3)nnc12,4.74,4.89,4.90,5.60,5.22,Activity [10]: Non-toxic; pKi (Thymidylate synthase [11]): 5.00
< 5,COCCn1c(C)nc2c(c1=O)c1nc3ccccc3nc1n2-c1cc(C)cc(C)c1,–,–,–,–,–,solubility [2]: Insoluble
< 5,FC(F)(F)c1nc2ccccc2n2c(-c3ccc(Cl)cc3)nnc12,5.92,5.47,5.60,5.64,5.33,–
< 5,COCCn1cnc2c(c1=O)c1nc3ccccc3nc1n2-c1ccc(Cl)c(Cl)c1,4.28,4.44,4.51,–,–,solubility [2]: Insoluble
–,FC(F)(F)c1nc2ccccc2n2c(-c3c(Cl)cccc3Cl)nnc12,5.00,4.55,4.43,4.56,4.60,inhibition 2008 [12]: inactive; Activity 2008 [13]: Non-toxic; inhibition [14]: inactive; inhibition (C13): inactive; inhibition (Thymidylate synthase [15]): 58.9%; inhibition (Thymidylate synthase [16]): 32.3%; inhibition 2008 [17]: inactive; Activity [18]: Non-toxic
–,Cc1ccc(-c2nnc3c(N(C)C)nc4ccccc4n23)cc1,–,–,–,–,–,inhibition [5]: inactive; inhibition (Thymidylate synthase [7]): 41%
–,COc1cc(Nc2nc3cc(C(F)(F)F)ccc3nc2C)cc(OC)c1OC,4.40,4.85,4.54,4.56,4.45,–
–,Cc1ccc(-c2nnc3c(C(F)(F)F)nc4ccccc4n23)cc1,< 4.30,4.57,4.37,4.48,4.45,inhibition 2008 [12]: inactive; Activity 2008 [13]: Non-toxic; inhibition [14]: inactive; inhibition (C13): inactive; inhibition (Thymidylate synthase [15]): 38.8%; inhibition (Thymidylate synthase [16]): 12.9%; inhibition 2008 [17]: inactive; Activity [18]: Non-toxic
–,COc1ccc(C(=O)c2nc3ccccc3nc2N2CCN(C)CC2)cc1,4.37,5.08,4.73,4.76,4.56,–
< 5,O=C(c1ccco1)N1N=C(c2ccc3nccnc3c2)CC1c1ccccc1 (configuration not stated),–,–,–,–,–,inhibition (Thymidylate synthase [7]): inactive
–,Fc1ccccc1-c1nnc2c(C(F)(F)F)nc3ccccc3n12,4.85,4.57,4.76,5.05,4.96,inhibition [5]: 10%; inhibition (Thymidylate synthase [7]): 17%
< 5,N#Cc1c(N)n(CCc2ccccc2F)c2nc3ccccc3nc12,5.04,4.66,4.74,–,–,–
< 5,O=C(Nc1cccc(Br)c1)c1ccc2nccnc2c1,–,4.30,4.30,–,–,–
